Measured values published in patent US12448388B2, “PRMT5 inhibitors and uses thereof” (Gilead Sciences, Inc., priority 2023, dated 2025).

These molecules were tested on HCT116 MTAP-deleted cell lines (assay: Cell viability assay (CellTiter-Glo, 7 days), HCT116 MTAP-deleted). Conditions: Homo sapiens, HCT-116; cell viability assay, HCT116 MTAP-deleted; class symbols; read-out: CC50.
Assay type: cell-based
Procedure, shortened: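 CC50 values come from 7-day CellTiter-Glo viability measurements on cells exposed to a dose range of PRMT5 inhibitors dispensed from DMSO stocks.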
In the case of `Cc1ncn2c1c(N)nc1cc(F)c(C(=O)N(C)[C@@H]3COc4cc(C(C)(F)F)ccc43)cc12` [Ff-382, (S)-4-amino-N-(6-(1,1-difluoroethyl)-2,3-dihydrobenzofuran-3-yl)-7-fluoro-N,3-dimethylimidazo[1,5-a]quinoxaline-8-carboxamide], the CC50 is reported as less than 0.1 µM. Molecule `Nc1nc2ccc(C(=O)N3CCC[C@@H]4Oc5cc(OC(F)(F)F)ccc5[C@@H]43)cc2n2cncc12` [Ff-383, (4-aminoimidazo[1,5-a]quinoxalin-8-yl)((4aS,9bS)-7-(trifluoromethoxy)-3,4,4a,9b-tetrahydrobenzofuro[3,2-b]pyridin-1(2H)-yl)methanone] has a CC50 of less than 0.1 µM. `C[C@H]1CC2Oc3cc(C(F)(F)F)ccc3C2N(C(=O)c2cc3c(cn2)nc(N)c2cncn23)C1` (stereo partly drawn) [Ff-386, (4-aminoimidazo[1,5-a]pyrido[3,4-e]pyrazin-8-yl)((3S)-3-methyl-7-(trifluoromethyl)-3,4,4a,9b-tetrahydrobenzofuro[3,2-b]pyridin-1(2H)-yl)methanone] was tested, and the CC50 was less than 0.1 µM. In the case of `Cc1ncc2c(N)nc3cnc(C(=O)N4C[C@H](C)C[C@@H]5Oc6c(ccc(C(F)(F)F)c6F)[C@@H]54)cc3n12` [Ff-388, (4-amino-1-methylimidazo[1,5-a]pyrido[3,4-e]pyrazin-8-yl)((3R,4aS,9bS)-6-fluoro-3-methyl-7-(trifluoromethyl)-3,4,4a,9b-tetrahydrobenzofuro[3,2-b]pyridin-1(2H)-yl)methanone], the CC50 is reported as less than 0.1 µM. In the case of `Nc1nc2ccc(C(=O)N3CCC[C@@H]4Oc5cc(C(F)(F)F)c(F)cc5[C@@H]43)cc2n2cncc12` [Ff-389, (4-aminoimidazo[1,5-a]quinoxalin-8-yl)((4aS,9bS)-8-fluoro-7-(trifluoromethyl)-3,4,4a,9b-tetrahydrobenzofuro[3,2-b]pyridin-1(2H)-yl)methanone], the CC50 is reported as less than 0.1 µM. In the case of `Nc1nc2cc(F)c(C(=O)N3CC(C(F)(F)F)OCC3c3ccc(C(F)(F)F)cn3)cc2n2cncc12` (stereo not drawn) [Ff-401], the CC50 is reported as 0.1 to 1 µM. With `Nc1nc2cc(F)c(C(=O)N3CCC(F)(F)C[C@@H]3c3ccc(OC(F)(F)F)cc3)cc2n2cncc12` [Ff-403, (R)-(4-amino-7-fluoroimidazo[1,5-a]quinoxalin-8-yl)(4,4-difluoro-2-(4-(trifluoromethoxy)phenyl)piperidin-1-yl)methanone] the CC50 was 0.1 to 1 µM. Work on `Nc1nc2cc(F)c(C(=O)N3CCCC[C@@H]3c3ccc(S(F)(F)(F)(F)F)cc3)cc2n2cncc12` [Ff-404, (R)-(4-amino-7-fluoroimidazo[1,5-a]quinoxalin-8-yl)(2-(4-(pentafluoro-λ^6-sulfaneyl)phenyl)piperidin-1-yl)methanone] yielded a CC50 of less than 0.1 µM. Work on `Nc1nc2cc(F)c(C(=O)N3CCC(F)(F)C[C@@H]3c3ccc(S(F)(F)(F)(F)F)cc3)cc2n2cncc12` [Ff-405, (R)-(4-amino-7-fluoroimidazo[1,5-a]quinoxalin-8-yl)(4,4-difluoro-2-(4-(pentafluoro-λ^6-sulfaneyl)phenyl)piperidin-1-yl)methanone] yielded a CC50 of less than 0.1 µM. Molecule `C[C@H]1CN(C(=O)c2cc3c(cc2Cl)nc(N)c2cncn23)[C@H]2c3ccc(C(F)(F)F)cc3C[C@H]2O1` [Ff-406, (4-amino-7-chloroimidazo[1,5-a]quinoxalin-8-yl)((2S,4aS,9aR)-2-methyl-7-(trifluoromethyl)-2,3,9,9a-tetrahydroindeno[2,1-b][1,4]oxazin-4(4aH)-yl)methanone] has a CC50 of less than 0.1 µM. `Nc1nc2ccc(C(=O)N(Cc3ccc(C(F)(F)F)cc3F)C3CCC3)cc2n2cncc12` [Ff-408, 4-amino-N-cyclobutyl-N-[[2-fluoro-4-(trifluoromethyl)phenyl]methyl]imidazo[1,5-a]quinoxaline-8-carboxamide] showed a CC50 of less than 0.1 µM. `CN(Cc1ccc(C(F)(F)F)cc1C(F)(F)F)C(=O)c1ccc2nc(N)c3cncn3c2c1` [Ff-409, 4-amino-N-[[2,4-bis(trifluoromethyl)phenyl]methyl]-N-methyl-imidazo[1,5-a]quinoxaline-8-carboxamide] was tested, and the CC50 was 0.1 to 1 µM. `CN(Cc1ccc(C(F)(F)F)cc1F)C(=O)c1ccc2nc(N)c3cncn3c2c1` [Ff-411, 4-amino-N-[[2-fluoro-4-(trifluoromethyl)phenyl]methyl]-N-methyl-imidazo[1,5-a]quinoxaline-8-carboxamide] was tested, and the CC50 was 0.1 to 1 µM. For `Cc1nn(C)cc1N(Cc1ccc(C(F)(F)F)cc1F)C(=O)c1cc2c(cc1F)nc(N)c1cncn12` [Ff-413, 4-amino-N-(1,3-dimethylpyrazol-4-yl)-7-fluoro-N-[[2-fluoro-4-(trifluoromethyl)phenyl]methyl]imidazo[1,5-a]quinoxaline-8-carboxamide], the CC50 was less than 0.1 µM. `Cc1c(N(Cc2ccc(C(F)(F)F)cc2F)C(=O)c2cc3c(cc2F)nc(N)c2cncn23)cnn1C` [Ff-414, 4-amino-N-(1,5-dimethylpyrazol-4-yl)-7-fluoro-N-[[2-fluoro-4-(trifluoromethyl)phenyl]methyl]imidazo[1,5-a]quinoxaline-8-carboxamide] was tested, and the CC50 was less than 0.1 µM. Molecule `Nc1nc2cc(F)c(C(=O)N(Cc3ccc(C(F)(F)F)cn3)C3CC(F)(F)C3)cc2n2cncc12` [Ff-415, 4-amino-N-(3,3-difluorocyclobutyl)-7-fluoro-N-[[5-(trifluoromethyl)-2-pyridyl]methyl]imidazo[1,5-a]quinoxaline-8-carboxamide] has a CC50 of less than 0.1 µM. For `C[C@H](c1ncccn1)N(Cc1ccc(C(F)(F)F)cc1F)C(=O)c1cc2c(cc1F)nc(N)c1cncn12` [Ff-416, 4-amino-7-fluoro-N-[[2-fluoro-4-(trifluoromethyl)phenyl]methyl]-N-[(1R)-1-pyrimidin-2-ylethyl]imidazo[1,5-a]quinoxaline-8-carboxamide], the CC50 was less than 0.1 µM. Molecule `Cc1nn(C)c(C)c1N(Cc1ccc(C(F)(F)F)cc1F)C(=O)c1cc2c(cc1F)nc(N)c1cncn12` [Ff-417, 4-amino-7-fluoro-N-[[2-fluoro-4-(trifluoromethyl)phenyl]methyl]-N-(1,3,5-trimethylpyrazol-4-yl)imidazo[1,5-a]quinoxaline-8-carboxamide] has a CC50 of less than 0.1 µM. Work on `C[C@H](C#N)N(Cc1ccc(C(F)(F)F)cc1F)C(=O)c1cc2c(cc1F)nc(N)c1cncn12` [Ff-418, 4-amino-N-[(1R)-1-cyanoethyl]-7-fluoro-N-[[2-fluoro-4-(trifluoromethyl)phenyl]methyl]imidazo[1,5-a]quinoxaline-8-carboxamide] yielded a CC50 of 0.1 to 1 µM. `COC[C@@H](C)N(Cc1ccc(C(F)(F)F)cc1F)C(=O)c1cc2c(cc1F)nc(N)c1cncn12` [Ff-419, 4-amino-7-fluoro-N-[[2-fluoro-4-(trifluoromethyl)phenyl]methyl]-N-[(1R)-2-methoxy-1-methyl-ethyl]imidazo[1,5-a]quinoxaline-8-carboxamide] gave a CC50 of less than 0.1 µM. Work on `C[C@H](C(N)=O)N(Cc1ccc(C(F)(F)F)cc1F)C(=O)c1cc2c(cc1F)nc(N)c1cncn12` [Ff-420, 4-amino-N-[(1R)-2-amino-1-methyl-2-oxo-ethyl]-7-fluoro-N-[[2-fluoro-4-(trifluoromethyl)phenyl]methyl]imidazo[1,5-a]quinoxaline-8-carboxamide] yielded a CC50 of 0.1 to 1 µM. Work on `Cn1cc(N(Cc2ccc(C(F)(F)F)cc2F)C(=O)c2cc3c(cc2F)nc(N)c2cncn23)c(Cl)n1` [Ff-421, 4-amino-N-(3-chloro-1-methyl-pyrazol-4-yl)-7-fluoro-N-[[2-fluoro-4-(trifluoromethyl)phenyl]methyl]imidazo[1,5-a]quinoxaline-8-carboxamide] yielded a CC50 of less than 0.1 µM. Work on `COc1nn(C)cc1N(Cc1ccc(C(F)(F)F)cc1F)C(=O)c1cc2c(cc1F)nc(N)c1cncn12` [Ff-422, 4-amino-7-fluoro-N-[[2-fluoro-4-(trifluoromethyl)phenyl]methyl]-N-(3-methoxy-1-methyl-pyrazol-4-yl)imidazo[1,5-a]quinoxaline-8-carboxamide] yielded a CC50 of less than 0.1 µM. For `Nc1nc2cc(F)c(C(=O)N(Cc3ccc(C(F)(F)F)cn3)c3cnn4ccccc34)cc2n2cncc12` [Ff-423, 4-amino-7-fluoro-N-pyrazolo[1,5-a]pyridin-3-yl-N-[[5-(trifluoromethyl)-2-pyridyl]methyl]imidazo[1,5-a]quinoxaline-8-carboxamide], the CC50 was less than 0.1 µM. `Nc1nc2cc(F)c(C(=O)N(Cc3ccc(C(F)(F)F)cc3F)c3cnn4ccccc34)cc2n2cncc12` [Ff-424, 4-amino-7-fluoro-N-[[2-fluoro-4-(trifluoromethyl)phenyl]methyl]-N-pyrazolo[1,5-a]pyridin-3-yl-imidazo[1,5-a]quinoxaline-8-carboxamide] was tested, and the CC50 was less than 0.1 µM. With `CN(C(=O)c1cc2c(cc1F)nc(N)c1cncn12)C1CCCc2cc(Cl)ccc21` (stereo not drawn) [Ff-425, 4-amino-N-(6-chloro-1,2,3,4-tetrahydronaphthalen-1-yl)-7-fluoro-N-methylimidazo[1,5-a]quinoxaline-8-carboxamide] the CC50 was 0.1 to 1 µM. Work on `CN(C(=O)c1cc2c(cc1F)nc(N)c1cncn12)C1CCc2sccc21` (stereo not drawn) [Ff-426, 4-amino-N-(5,6-dihydro-4H-cyclopenta[b]thiophen-4-yl)-7-fluoro-N-methyl-imidazo[1,5-a]quinoxaline-8-carboxamide] yielded a CC50 of 0.1 to 1 µM. With `CN(Cc1ccc([C@@H]2C[C@H]2c2ccn(C(F)F)n2)cn1)C(=O)c1cc2c(cc1F)nc(N)c1cncn12` [Ff-428, 4-amino-N-[[5-[(1R,2R)-2-[1-(difluoromethyl)pyrazol-3-yl]cyclopropyl]-2-pyridyl]methyl]-7-fluoro-N-methyl-imidazo[1,5-a]quinoxaline-8-carboxamide] the CC50 was 0.1 to 1 µM. In the case of `CN(Cc1ccc([C@@H]2C[C@H]2c2ccn(C(F)F)n2)cc1F)C(=O)c1cc2c(cc1F)nc(N)c1cncn12` [Ff-429, 4-amino-N-[[4-[(1R,2R)-2-[1-(difluoromethyl)pyrazol-3-yl]cyclopropyl]-2-fluoro-phenyl]methyl]-7-fluoro-N-methyl-imidazo[1,5-a]quinoxaline-8-carboxamide], the CC50 is reported as less than 0.1 µM. With `CN(C(=O)c1cc2c(cc1F)nc(N)c1cncn12)C1CCCc2cc(C(F)(F)F)ccc21` (stereo not drawn) [Ff-430, 4-amino-7-fluoro-N-methyl-N-[6-(trifluoromethyl)tetralin-1-yl]imidazo[1,5-a]quinoxaline-8-carboxamide] the CC50 was 0.1 to 1 µM.
